Experimental data: patent US20060172418A1, “Hypercoiling polymers and their use in cellular delivery” (priority 2002, published 2006)
Entries after “also recorded” stand apart in the source; their conditions may differ. Like-named read-outs stand apart in the source and are kept apart here.

How the values were obtained:
CHO cells [1] = experiment: Uptake and internalisation of PD30 (LSCM); assay type: cell-based, Chinese hamster; details: pH 7.4, 37° C., 30 minutes; PD30 1 mg/mL, free dyes 0.01 mg/mL
Experimental: (§1) CHO or HepG2 cells (80,000 cells/mL) were seeded into Willco dishes and incubated overnight (24 hours) at 37° C. in a humidity controlled incubator in an air atmosphere supplemented with 5% CO2.
(§2) The cells were then washed three times with 2 mL D-PBS (Sigma, Poole, Dorset, UK) to remove excess serum. 2 mL of PD30 at a concentration of 1 mg/mL in D-PBS (pH 7.4) was added, and the cells incubated for 10 minutes at 37° C. in a humidity controlled incubator in an air atmosphere supplemented with 5% CO2.
(§3) Controls were prepared similarly, by the addition of 2 mL of bis-amino Cy3 at a concentration of 0.01 mg/mL in D-PBS (pH 7.4), or 2 mL of bis-sulphonic acid Cy3 at a concentration of 0.01 mg/mL in D-PBS (pH 7.4), followed by incubation for 10 minutes at 37° C. in a humidity controlled incubator in an air atmosphere supplemented with 5% CO2.
(§4) Laser Scanning Confocal Microscopy (LSCM) images were then obtained at 10 minute intervals, using an Olympus FV300 LSCM (Department of Chemical Engineering, University of Cambridge, Cambridge, Cambridgeshire, UK). The cells remained on the microscope for the duration of the imaging experiments.

[2] = Spectrophotometric titration with HCl; assay type: physicochemical; details: read-out: pKa of the bis-amino groups
Experimental: Aqueous solutions of polymers were titrated by with 1.0 N HCl delivered to an Aminco-SDP-125 spectrofluorimeter, equipped with a flow through cell, from a titration vessel, via a peristaltic pump.
Spectrophotometric titrations were carried out for a mixture of poly(L-lysine iso-phthalamide) at a concentration of 0.5 g/l and free bis-amino Cy3 at a fluorophore concentration of 0.26 mM (0.1 g/l), which yields the maximum emission intensity for this polymer/fluorophore combination.

HepG2 cells [3] = experiment: Uptake and internalisation of PD30 (LSCM); assay type: cell-based, Human; details: pH 7.4, 37° C., 30 minutes; PD30 1 mg/mL, bis-amino Cy3 0.01 mg/mL
Experimental: as §1, §2, §3, §4

[4] = at 25° C.; cited from earlier work
CHO cells [5] = experiment: Interaction of PD20 with CHO cells at pH 7.4 and pH 5.5 (fluorescence microscopy); assay type: cell-based, Chinese hamster; details: 30 minute incubation at 37° C.
Experimental: A 2 mL suspension of CHO cells (10^5 cells/mL) was seeded into WilCo dishes (Intracel, Royston, UK) and incubated overnight (24 hours) at 37° C. in a humidity controlled incubator in an air atmosphere supplemented with 5% CO2.
The CHO cells were then washed three times with 100 μl of D-PBS (Sigma, Poole, Dorset, UK) to remove excess serum. 2 mL of PD20 (1 mg/mL) in D-PBS (Sigma, Poole, Dorset, UK) at pH 7.4 or titrated to pH 5.5 with 0.1 M HCl was then added to the Willco dishes.
The dishes were incubated for 30 minutes, the PD20 removed (by aspiration) and the cells washed three times with 2 mL D-PBS (Sigma, Poole, Dorset, UK) adjusted to pH 7.4 or pH 5.5 with 1.0 M HCl.
The CHO cells were then re-suspended in 2 mL of D-PBS at pH 7.4 or titrated to pH 5.5 with 0.1 M HCl and fluorescent photomicrogram images obtained on a Laser Scanning Confocal Zeiss LSM410 microscope (λex 535 nm, λem 570 nm) with a ×20 magnification lens (Amersham Biosciences, Cardiff, UK).
Phase contrast images of the CHO cells were obtained on the same microscope in non-fluorescence mode.

CHO cells [6] = experiment: Interaction of PD20 with CHO cells at pH 7.4, 6.0 or 5.0 (confocal time course); assay type: cell-based, Chinese hamster
Experimental: CHO cells (80,000/mL) were seeded into WilCo dishes and incubated overnight (24 hours) at 37° C. in a humidity controlled incubator in an air atmosphere supplemented with 5% CO2.
The CHO cells were then washed three times with 2 mL D-PBS (Sigma, Poole, Dorset, UK) to remove excess serum and incubated with 2 mL PD20 (1 mg/mL) in serum-free medium (F12 Nutrient Ham Mixture, Sigma, Poole, Dorset, UK) titrated to pH 7.4, 6.0, or 5.0 with 0.1 M HCl.
The CHO cells were then incubated for 10 minutes and washed three times with 2 mL D PBS (pH 7.4, 6.0, or 5.0). 2 mL of fresh D-PBS at the required pH (pH 7.4, 6.0, or 5.0) was added to each dish and the CHO cells were then imaged on a Zeiss LSM410 confocal microscope (Amersham Biosciences, Cardiff, UK) for 1 hour at 10 minute intervals (to reduce photobleaching and cell exposure to the laser). The cells were maintained at 37° C. on an integral heater stage.
The confocal microscope images were quantified using Metamorph™ software to give the fluorescence intensity.

HepG2 cells [7] = experiment: Co-localisation of PD20 with FITC-Alexa Fluor 488; assay type: cell-based, Human; details: 1 mg/mL, 15 minutes, pH 7.4
Experimental: HepG2 cells (80,000/mL) were seeded into WilCo dishes, and incubated overnight (24 hours) at 37° C. in a humidity controlled incubator in an air atmosphere supplemented with 5% CO2.
The HepG2 cells were then incubated for a period of 15 minutes with a mixture of PD20 at a concentration of 1 mg/mL and the endosomal labelling fluorophore FITC-Alexa Fluor 488 (Cambridge Biosciences, Cambridge, UK) at a concentration of 50 μg/mL in serum free medium (Dulbecco's Modified Eagle Medium, DMEM) appropriate for HepG2 cells (total volume 2 mL) at pH 7.4.
The supernatant was then removed and the cells washed three times with 2 mL DMEM. 2 mL of fresh D-PBS was added to each dish and the CHO cells were then imaged on a Zeiss LSM410 confocal microscope (λex 535 nm, λem 570 nm for PD20, λex 495 nm, λem 518 nm for FITC Alexa Fluor 488) (Amersham Biosciences, Cardiff, UK).

MCF7 cells [8] = experiment: Polymer-conjugated doxorubicin uptake (flow cytometry); assay type: cell-based, human; details: 2 mM doxorubicin or equivalent; for uptake into cells: serum-free medium
Experimental: (§5) Control solutions, containing polymer (with no doxorubicin) and medium alone were also prepared. […] Samples (1 mL) of each test solution were placed in Eppindorf centrifuge tubes and placed in an incubator at 37° C. under a 5% CO2 atmosphere. 2×10^6 cells of each type were suspended in 300 μL of cell culture media (10% foetal calf serum, 2 mM L-Glutamine, 100 U/mL penicillin and 100 μg/mL streptomycin) and incubated at 37° C. under a 5% CO2 atmosphere. The study was initiated by adding 10 μL of cells to each test sample. After selected exposure times, the cells were pelleted by centrifuge and placed on ice. The cells were then re-suspended in phosphate buffer and analysed using a flow cytometer gated to count […] (approximately 10% of the total cell count). A histogram of fluorescence intensity vs. number of events, and the median value of fluorescence intensity, was recorded for each sample. Background fluorescence for cells alone, or for cells with DMSO, was subtracted from the corresponding test samples.

MCF7/MXR cells [9] = experiment: as above; assay type: cell-based, human; details: 2 mM doxorubicin or equivalent; for uptake into cells: serum-free medium
Experimental: as §5

MCF7 cells [10] = details: 5 days
Experimental: (§6) Subsequently, a standard MTT (3-(4,5-dimethylthiazol-2-yl)-2,5-diphenyl-2H-tetrazolium bromide) assay was performed in order to assess cell viability.
(§7) The total DMSO concentration was adjusted to 1% by volume, and the cells incubated at 37° C. under a 5% CO2 atmosphere for 5 days. […] Subsequently, a standard MTT assay was performed in order to assess cell viability.

MCF7/MXR cells [11] = details: 5 days
Experimental: as §6, §7

What does the source list for `CCN1/C(=C/C=C/C2=[N+](CC)c3ccc(CN)cc3C2(C)C)C(C)(C)c2cc(CN)ccc21` [bis-amino Cy3, reference compound]?
subcellular localisation after uptake (CHO cells [1]): localised in the endosome; pKa [2]: 9.5; nuclear staining (HepG2 cells [3]): No nuclear staining; subcellular localisation after uptake (HepG2 cells [3]): localised in the endosome

For `NCCCC[C@H](N)C(=O)O` [lysine], which pKa [4] is on record?
The pKa was “about 2.18”.

What does the source list for “Poly(L-lysine-co-Cy3-iso-phthalamide) [PD20]”?
adsorption onto the extracellular membrane of CHO cells (CHO cells [5]; pH 5.5, 1 mg/mL): extensive adsorption; adsorption onto the membrane of CHO cells (CHO cells [5]; pH 7.4, 1 mg/mL): weakly adsorbed; initial relative fluorescence intensity of cells at pH 6.0 and pH 5.0 versus pH 7.4 (CHO cells [6]; 1 mg/mL): more than three times larger; time at which fluorescence intensity peaked (CHO cells [6]; pH 5.0, 1 mg/mL): 20 min; time at which fluorescence intensity peaked (CHO cells [6]; pH 6.0, 1 mg/mL): 30 min; relative fluorescence intensity of the cells with time (CHO cells [6]; pH 7.4, 1 mg/mL): gradual increase; co-localisation with endosomal stain FITC-Alexa Fluor 488 (HepG2 cells [7]): uptake of the PD20 into the endosomal compartment

With `COc1cccc2c1C(=O)c1c(O)c3c(c(O)c1C2=O)C[C@@](O)(C(=O)CO)C[C@@H]3O[C@H]1C[C@H](N)[C@H](O)[C@H](C)O1` [doxorubicin, reference compound] as the compound, how does the “effect of 1% DMSO on uptake” value (MCF7 cells [8]) read?
Its value is “significantly enhances”.

And the uptake into cells (MCF7 cells [8])?
The uptake into cells was “taken up into cells”.

What about the “effect of 1% DMSO on uptake” value (MCF7/MXR cells [9]) of the same compound?
Its value is “significantly enhances”.

What about the uptake into cells (MCF7/MXR cells [9]) of the same compound?
The uptake into cells was “taken up into cells”.

And the cytotoxic effect (MCF7 cells [10]; 1% by volume of DMSO)?
The cytotoxic effect was “significant cytotoxic effects”.

What about the cytotoxic effect (MCF7 cells [10]; without DMSO) of the same compound?
Its cytotoxic effect is “significant cytotoxic effects”.

What about the cytotoxic effect (MCF7/MXR cells [11]; 1% by volume of DMSO) of the same compound?
Its cytotoxic effect is “significant cytotoxic effects”.

And the cytotoxic effect (MCF7/MXR cells [11]; without DMSO)?
The cytotoxic effect was “significant cytotoxic effects”.

For “poly(lysine iso-phthalamide-co-lysine DOX iso-phthalamide) [polymer-conjugated doxorubicin]”, which “effect of 1% DMSO on uptake” value (MCF7 cells [8]) is on record?
Its value is “little effect”.

And the uptake into cells (MCF7 cells [8])?
The uptake into cells was “taken up into cells”.

And the “effect of 1% DMSO on uptake” value (MCF7/MXR cells [9])?
The value was “little effect”.

And the uptake into cells (MCF7/MXR cells [9])?
Its uptake into cells is “taken up into cells”.

For “Poly(L-lysine-co-Cy3-iso-phthalamide) [PD30]”, which nuclear staining (CHO cells [1]) is on record?
The nuclear staining was “heavily stained; also recorded: clearly associated with the nucleus”.

And the “subcellular localisation after uptake” value (CHO cells [1])?
The value was “localised in the nucleus”.

And the nuclear staining (HepG2 cells [3])?
Its nuclear staining is “heavy staining in the nucleus; also recorded: extensive nuclear staining”.

And the “subcellular localisation after uptake” value (HepG2 cells [3])?
Its value is “localised in the nucleus”.
